Columns and labels:
Estrogen receptor beta [1] = molecular target: T1, Estrogen receptor beta (Homo sapiens, UniProt Q92731); assay: Antagonist activity at ER-beta (unknown origin) transfected in HEK293T cells assessed as inhibition of transcriptional activity after 24 hrs by luciferase reporter gene assay relative to 17-beta estradiol; type: cell-based; settings: HEK-293T
MCF7 = assay: cells; type: functional, cell-based; settings: Homo sapiens, MCF7, 72 h
DU-145 = assay: cells; type: functional, cell-based; settings: Homo sapiens, DU-145, 72 h
Estrogen receptor beta [2] = molecular target: T1, Estrogen receptor beta; assay: Agonist activity at ER-beta (unknown origin) transfected in HEK293T cells assessed as stimulation of transcriptional activity after 24 hrs by luciferase reporter gene assay; type: cell-based, HEK-293T
Estrogen receptor beta [3] = molecular target: T1, Estrogen receptor beta; assay: Binding affinity to human ER-beta ligand binding domain after 2 hrs by competitive fluorometric binding assay
Estrogen receptor [4] = molecular target: T2, Estrogen receptor (Homo sapiens, UniProt P03372); assay: Binding affinity to human ER-alpha ligand binding domain after 2 hrs by competitive fluorometric binding assay
T2 sequence (P03372 whole entry): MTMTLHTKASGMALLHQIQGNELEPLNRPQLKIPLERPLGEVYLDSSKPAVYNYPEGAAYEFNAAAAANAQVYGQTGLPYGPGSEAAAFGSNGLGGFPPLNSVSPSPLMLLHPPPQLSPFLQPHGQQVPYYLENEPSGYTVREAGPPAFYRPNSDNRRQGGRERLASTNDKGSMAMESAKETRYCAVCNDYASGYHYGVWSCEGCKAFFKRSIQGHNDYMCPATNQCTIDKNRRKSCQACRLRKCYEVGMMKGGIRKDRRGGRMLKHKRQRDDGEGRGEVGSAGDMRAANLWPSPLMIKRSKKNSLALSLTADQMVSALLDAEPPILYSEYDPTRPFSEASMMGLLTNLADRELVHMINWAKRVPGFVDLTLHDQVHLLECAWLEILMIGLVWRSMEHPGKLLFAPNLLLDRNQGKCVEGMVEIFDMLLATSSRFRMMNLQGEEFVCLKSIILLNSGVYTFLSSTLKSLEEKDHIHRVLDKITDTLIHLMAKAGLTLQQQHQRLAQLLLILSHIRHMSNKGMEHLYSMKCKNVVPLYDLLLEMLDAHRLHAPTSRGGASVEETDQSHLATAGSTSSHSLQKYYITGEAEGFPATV

Vero = assay: cells; type: ADME, cell-based; settings: Chlorocebus sabaeus, 72 h
Estrogen receptor beta [5] = molecular target: T1, Estrogen receptor beta; assay: Agonist activity at ER-beta (unknown origin) transfected in HEK293T cells assessed as stimulation of transcriptional activity after 24 hrs by luciferase reporter gene assay relative to 17-beta estradiol; type: cell-based; settings: HEK-293T
[6] = molecular target: T3, Estrogen receptor (Homo sapiens) (UniProt P03372); assay: Antagonist activity at ER-alpha (unknown origin) transfected in HEK293T cells assessed as inhibition of transcriptional activity after 24 hrs by luciferase reporter gene assay relative to 17-beta estradiol; type: cell-based; settings: HEK-293T
T3 sequence (whole entry): T2 sequence (P03372 whole entry)

[7] = molecular target: T3, Estrogen receptor (Homo sapiens); assay: Agonist activity at ER-alpha (unknown origin) transfected in HEK293T cells assessed as stimulation of transcriptional activity after 24 hrs by luciferase reporter gene assay relative to 17-beta estradiol; type: cell-based; settings: HEK-293T
Histone deacetylase 1 = Histone deacetylase 1 (Homo sapiens, UniProt Q13547); assay: Inhibition of human recombinant HDAC1 after 15 mins by fluorogenic assay
[8] = molecular target: T4, Protein deacetylase HDAC6 (Homo sapiens, UniProt Q9UBN7); assay: Inhibition of human recombinant HDAC6 after 15 mins by fluorogenic assay
T4 sequence (Q9UBN7 whole entry): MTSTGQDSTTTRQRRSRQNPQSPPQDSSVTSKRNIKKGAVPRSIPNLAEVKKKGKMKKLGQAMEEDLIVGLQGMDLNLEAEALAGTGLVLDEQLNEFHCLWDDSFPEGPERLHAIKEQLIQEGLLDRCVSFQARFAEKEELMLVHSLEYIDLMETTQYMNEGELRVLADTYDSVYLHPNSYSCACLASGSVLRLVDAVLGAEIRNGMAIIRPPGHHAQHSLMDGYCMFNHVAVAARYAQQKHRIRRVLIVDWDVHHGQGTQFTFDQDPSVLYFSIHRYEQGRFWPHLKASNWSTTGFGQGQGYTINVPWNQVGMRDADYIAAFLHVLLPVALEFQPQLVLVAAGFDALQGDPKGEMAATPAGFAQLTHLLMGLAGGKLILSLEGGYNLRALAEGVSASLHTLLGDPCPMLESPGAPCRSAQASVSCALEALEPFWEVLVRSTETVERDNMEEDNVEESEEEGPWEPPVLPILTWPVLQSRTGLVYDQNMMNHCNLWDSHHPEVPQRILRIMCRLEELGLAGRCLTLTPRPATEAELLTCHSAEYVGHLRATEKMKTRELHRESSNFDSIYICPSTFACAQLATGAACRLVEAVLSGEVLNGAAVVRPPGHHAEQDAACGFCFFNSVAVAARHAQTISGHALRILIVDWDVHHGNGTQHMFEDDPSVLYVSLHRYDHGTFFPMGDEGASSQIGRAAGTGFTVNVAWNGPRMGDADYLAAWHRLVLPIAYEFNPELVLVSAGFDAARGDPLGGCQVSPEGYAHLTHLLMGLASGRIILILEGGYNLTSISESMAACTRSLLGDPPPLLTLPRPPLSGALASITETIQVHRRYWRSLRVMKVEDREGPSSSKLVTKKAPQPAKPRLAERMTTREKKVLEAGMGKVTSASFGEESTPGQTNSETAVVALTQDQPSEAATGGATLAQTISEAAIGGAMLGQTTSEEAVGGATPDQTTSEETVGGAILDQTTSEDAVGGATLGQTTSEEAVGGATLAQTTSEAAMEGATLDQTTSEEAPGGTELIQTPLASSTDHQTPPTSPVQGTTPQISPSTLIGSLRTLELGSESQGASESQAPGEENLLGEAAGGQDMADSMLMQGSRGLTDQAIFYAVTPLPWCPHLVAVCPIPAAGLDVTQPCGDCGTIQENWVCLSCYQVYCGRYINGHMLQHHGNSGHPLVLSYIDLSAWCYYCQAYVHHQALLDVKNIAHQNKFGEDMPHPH

Estrogen receptor [9] = molecular target: T2, Estrogen receptor; assay: Antagonist activity at ER-alpha (unknown origin) transfected in HEK293T cells assessed as inhibition of transcriptional activity after 24 hrs by luciferase reporter gene assay; type: cell-based, HEK-293T

Chain of Histone deacetylase 1 (Q13547 whole entry): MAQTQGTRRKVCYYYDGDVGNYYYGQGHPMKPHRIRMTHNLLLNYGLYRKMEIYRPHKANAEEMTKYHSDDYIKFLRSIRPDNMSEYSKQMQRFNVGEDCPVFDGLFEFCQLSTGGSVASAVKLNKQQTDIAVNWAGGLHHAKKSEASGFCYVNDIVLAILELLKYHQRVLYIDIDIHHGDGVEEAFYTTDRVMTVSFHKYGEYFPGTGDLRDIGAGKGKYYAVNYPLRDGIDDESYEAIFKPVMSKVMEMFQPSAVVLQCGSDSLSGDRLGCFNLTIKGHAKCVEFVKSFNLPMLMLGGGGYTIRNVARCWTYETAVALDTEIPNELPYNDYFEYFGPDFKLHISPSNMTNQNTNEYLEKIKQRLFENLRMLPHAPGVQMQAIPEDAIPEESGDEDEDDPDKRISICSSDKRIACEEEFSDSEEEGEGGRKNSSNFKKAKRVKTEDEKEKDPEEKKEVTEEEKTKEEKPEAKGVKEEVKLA
T1 sequence (Q92731 whole entry): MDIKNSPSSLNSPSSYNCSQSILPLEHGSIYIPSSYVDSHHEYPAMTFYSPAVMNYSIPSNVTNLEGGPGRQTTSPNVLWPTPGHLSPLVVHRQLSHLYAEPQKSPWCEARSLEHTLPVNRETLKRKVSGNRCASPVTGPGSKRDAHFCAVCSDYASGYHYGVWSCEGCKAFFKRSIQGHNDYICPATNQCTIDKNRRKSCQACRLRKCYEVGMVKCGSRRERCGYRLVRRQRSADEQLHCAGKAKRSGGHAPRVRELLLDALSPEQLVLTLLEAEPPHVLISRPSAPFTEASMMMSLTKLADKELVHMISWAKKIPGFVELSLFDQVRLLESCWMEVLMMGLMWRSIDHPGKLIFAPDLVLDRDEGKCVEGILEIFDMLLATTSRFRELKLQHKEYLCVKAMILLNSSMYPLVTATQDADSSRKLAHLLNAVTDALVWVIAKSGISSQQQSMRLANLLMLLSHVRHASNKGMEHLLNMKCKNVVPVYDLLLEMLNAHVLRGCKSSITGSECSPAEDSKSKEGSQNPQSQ

Row | SMILES | Efficacy (Estrogen receptor beta [1]) | IC50 (MCF7) | IC50 (DU-145) | EC50 (Estrogen receptor beta [2]) | Ki (Estrogen receptor beta [3]) | Ki (Estrogen receptor [4]) | IC50 (Vero) | Efficacy (Estrogen receptor beta [5]) | Efficacy [6] | Efficacy [7] | IC50 (Histone deacetylase 1) | IC50 [8] | IC50 (Estrogen receptor [9]) | IC50 (Histone deacetylase 1; read-out: IC50) | IC50 ([8]; read-out: IC50)
1 | O=C(CCCCCCC(=O)Nc1ccc(C2=C(c3ccc(O)cc3)C3CC(S(=O)(=O)Oc4ccc(F)cc4)C2O3)cc1)NO (racemic) | 86% | 23.4 µM | 47.3 µM | 2 nM | 3400 nM | > 5 µM | > 100 µM | 49% | 135% | – | – | – | – | – | –
2 | O=C(O)CCCCCCC(=O)Nc1ccc(C2=C(c3ccc(O)cc3)C3CC(S(=O)(=O)Oc4cccc5ccccc45)C2O3)cc1 (stereo not given) | 15% | 4.7 µM | 48.6 µM | – | – | – | – | -13% | 14% | 5% | Not Active | Not Active | – | – | –
3 | Cc1ccccc1OS(=O)(=O)C1CC2OC1C(c1ccc(NC(=O)CCCCCCC(=O)O)cc1)=C2c1ccc(O)cc1 (racemic) | 117% | 7.9 µM | > 100 µM | 380 nM | – | – | > 100 µM | 24% | 43% | -3% | – | – | 460 nM | 22 nM | 5010 nM
4 | Cc1ccc(OS(=O)(=O)C2CC3OC2C(c2ccc(NC(=O)CCCCCCC(=O)NO)cc2)=C3c2ccc(O)cc2)cc1 (racemic) | 95% | 40.4 µM | 42.9 µM | 38 nM | > 5000 nM | > 5 µM | > 100 µM | 52% | 116% | -28% | – | – | – | – | –
5 | Cc1ccc(OS(=O)(=O)C2CC3OC2C(c2ccc(NC(=O)CCCCCCC(=O)O)cc2)=C3c2ccc(O)cc2)cc1 (racemic) | 111% | 60.5 µM | 80.8 µM | 520 nM | 87.3 nM | – | > 100 µM | 8% | 36% | -6% | – | – | 1080 nM | – | –
6 | O=C(O)CCCCCCC(=O)Nc1ccc(C2=C(c3ccc(O)cc3)C3CC(S(=O)(=O)Oc4ccccc4O)C2O3)cc1 (racemic) | 87% | 27.9 µM | 27.7 µM | – | – | – | > 100 µM | 37% | 24% | 12% | – | – | 140 nM | – | –
7 | O=C(O)CCCCCCC(=O)Nc1cccc(OS(=O)(=O)C2CC3OC2C(c2ccc(O)cc2)=C3c2ccc(O)cc2)c1 (stereo not given) | 102% | > 100 µM | > 100 µM | 2100 nM | – | – | > 100 µM | 47% | 122% | 51% | – | – | – | – | –
8 | O=S(=O)(Oc1ccccc1)[C@H]1C[C@H]2O[C@@H]1C(c1ccc(O)cc1)=C2c1ccc(O)cc1 (relative stereo) | – | 20.9 µM | > 100 µM | – | – | – | > 100 µM | – | – | – | Not Active | Not Active | – | – | –
9 | COc1ccccc1OS(=O)(=O)C1CC2OC1C(c1ccc(NC(=O)CCCCCCC(=O)NO)cc1)=C2c1ccc(O)cc1 (racemic) | 74% | 25.8 µM | 44.7 µM | 23 nM | – | > 5 µM | > 100 µM | 53% | 164% | 9% | – | – | – | – | –
10 | O=C(O)CCCCCCC(=O)Nc1ccc(C2=C(c3ccc(O)cc3)C3CC(S(=O)(=O)Oc4ccc(C(F)(F)F)cc4)C2O3)cc1 (racemic) | 136% | 24 µM | 77 µM | – | – | – | > 100 µM | -12% | 10% | -51% | Not Active | – | 790 nM | – | 648 nM
11 | O=C(O)CCCCCCC(=O)Nc1ccc(C2=C(c3ccc(O)cc3)C3CC(S(=O)(=O)Oc4ccccc4C(F)(F)F)C2O3)cc1 (racemic) | 102% | 26.1 µM | > 100 µM | – | – | 3.87 µM | > 100 µM | 10% | 37% | 9% | – | – | 640 nM | – | –
12 | Cc1cccc(OS(=O)(=O)C2CC3OC2C(c2ccc(NC(=O)CCCCCCC(=O)O)cc2)=C3c2ccc(O)cc2)c1 (racemic) | 87% | 3.8 µM | 52.4 µM | – | – | – | – | -11% | 43% | -28% | – | Not Active | – | 2980 nM | –
13 | O=C(O)CCCCCCC(=O)Nc1ccc(C2=C(c3ccc(O)cc3)C3CC(S(=O)(=O)Oc4ccccc4)C2O3)cc1 (racemic) | 97% | 66.4 µM | > 100 µM | 930 nM | 654 nM | 0.112 µM | > 100 µM | 36% | 36% | -13% | – | – | 1210 nM | – | –
14 | O=C(CCCCCCC(=O)Nc1ccc(C2=C(c3ccc(O)cc3)C3CC(S(=O)(=O)Oc4ccccc4)C2O3)cc1)NO (racemic) | 92% | 30.1 µM | 37.7 µM | 2 nM | – | > 5 µM | > 100 µM | 38% | 77% | 20% | – | – | – | – | –
15 | COc1ccc(OS(=O)(=O)C2CC3OC2C(c2ccc(NC(=O)CCCCCCC(=O)O)cc2)=C3c2ccc(O)cc2)cc1 (racemic) | 137% | 15.3 µM | 38.6 µM | – | – | – | > 100 µM | 5% | 40% | 27% | Not Active | – | 116000 nM | – | 4170 nM
16 | Cc1ccccc1OS(=O)(=O)C1CC2OC1C(c1ccc(NC(=O)CCCCCCC(=O)NO)cc1)=C2c1ccc(O)cc1 (racemic) | 94% | 24.1 µM | 30.7 µM | 203 nM | 2120 nM | > 5 µM | > 100 µM | 27% | 126% | -20% | – | – | – | – | –
17 | O=C(CCCCCCC(=O)Nc1ccc(C2=C(c3ccc(O)cc3)C3CC(S(=O)(=O)Oc4cccc5ccccc45)C2O3)cc1)NO (racemic) | 94% | 13.4 µM | 8.57 µM | – | – | > 5 µM | > 100 µM | 36% | 88% | -22% | Not Active | – | – | – | 30 nM

From ChEMBL document CHEMBL3588800, “Novel Bioactive Hybrid Compound Dual Targeting Estrogen Receptor and Histone Deacetylase for the Treatment of Breast Cancer” (J Med Chem, 2015)
